Assay results published in ChEMBL document CHEMBL1136525, “6,7-dihydroxyisoquinoline-3-carboxylic acids are potent inhibitors on the binding of insulin-like growth factor (IGF) to IGF-binding proteins: optimization of the 1-position benzoyl side chain” (Bioorg Med Chem Lett, 2003).

Biological target: Insulin-like growth factor-binding protein 3 (Homo sapiens, UniProt P17936)
Test: Ability to displace Insulin-Like Growth Factor (IGF-I) from its binding to human insulin-like growth factor binding protein 3 (hIGFBP-3)

Sequence of Insulin-like growth factor-binding protein 3 (P17936 whole entry): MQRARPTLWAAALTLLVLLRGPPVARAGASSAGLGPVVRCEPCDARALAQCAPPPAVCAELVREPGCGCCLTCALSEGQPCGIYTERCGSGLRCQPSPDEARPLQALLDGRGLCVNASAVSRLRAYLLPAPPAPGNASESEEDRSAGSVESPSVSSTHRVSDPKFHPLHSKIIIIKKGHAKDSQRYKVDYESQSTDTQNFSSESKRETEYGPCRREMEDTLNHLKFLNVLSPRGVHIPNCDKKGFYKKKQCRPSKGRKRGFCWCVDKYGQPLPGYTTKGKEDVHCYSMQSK

| SMILES | Ki |
| --- | --- |
| Nc1ccc(C(=O)c2nc(C(=O)O)cc3cc(O)c(O)cc23)cc1 | 130 nM |
| O=C(O)c1cc2cc(O)c(O)cc2c(C(=O)c2ccc(F)c(F)c2)n1 | 51 nM |
| O=C(O)c1cc2cc(O)c(O)cc2c(Cc2ccc3c(c2)OCO3)n1 | 72 nM |
| CS(=O)(=O)Nc1cc2cc(C(=O)O)nc(C(=O)c3ccc4c(c3)OCO4)c2cc1O | > 10000 nM |
| Cc1cc(C)c(C(=O)c2nc(C(=O)O)cc3cc(O)c(O)cc23)c(C)c1 | 100 nM |
| O=C(O)c1cc2cc(O)c(O)cc2c(C(=O)c2ccc(C(F)(F)F)cc2)n1 | 38 nM |
| O=C(O)c1cc2cc(O)c(O)cc2c(C(=O)c2cccc(F)c2)n1 | 110 nM |
| O=C(O)c1cc2cc(O)c(O)cc2c(C(=O)c2ccc([N+](=O)[O-])cc2)n1 | 32 nM |
| Nc1cc2cc(C(=O)O)nc(C(=O)c3ccc(O)c(O)c3)c2cc1O | 60 nM |
| CCCCC(CC)CNc1ccc(C(=O)c2nc(C(=O)O)cc3cc(O)c(O)cc23)cc1F (configuration not stated) | 62 nM |
| Nc1cc2cc(C(=O)O)nc(C(=O)c3ccc4c(c3)OCO4)c2cc1O | 850 nM |
| CS(=O)(=O)Nc1ccc(C(=O)c2nc(C(=O)O)cc3cc(O)c(O)cc23)cc1 | 110 nM |
| O=C(O)c1cc2cc(O)c(O)cc2c(C(=O)c2ccccc2Cl)n1 | 110 nM |

Continued by falling Ki, values first:

| Ki | SMILES |
| --- | --- |
| 32 nM | O=C(O)c1cc2cc(O)c(O)cc2c(C(O)c2ccc(Oc3ccccc3)cc2)n1 (configuration not stated) |
| 32 nM | O=C(O)c1cc2cc(O)c(O)cc2c(C(=O)c2ccc(Oc3ccc(-c4ccccc4)cc3)c(F)c2)n1 |
| 32 nM | O=C(O)c1cc2cc(O)c(O)cc2c(C(=O)c2ccc(Oc3ccc(C(F)(F)F)cc3)c(F)c2)n1 |
| 31 nM | O=C(O)c1cc2cc(O)c(O)cc2c(C(=O)c2ccc(Sc3ccc(Cl)cc3)c(F)c2)n1 |
| 29 nM | O=C(O)c1cc2cc(O)c(O)cc2c(C(=O)c2ccc(Cl)c(Cl)c2)n1 |
| 25 nM | O=C(O)c1cc2cc(O)c(O)cc2c(C(O)c2ccccc2Cl)n1 (configuration not stated) |
| 24 nM | O=C(O)c1cc2cc(O)c(O)cc2c(C(O)c2cccc(F)c2)n1 (configuration not stated) |
| 20 nM | O=C(O)c1cc2cc(O)c(O)cc2c(C(=O)c2ccc(Oc3ccc(Cl)cc3)c(F)c2)n1 |
| 18 nM | O=C(O)c1cc2cc(O)c(O)cc2c(C(O)c2ccc(C(F)(F)F)cc2)n1 (configuration not stated) |
| 12 nM | O=C(O)c1cc2cc(O)c(O)cc2c(C(=O)c2ccc(Oc3ccc(Cl)c(Cl)c3)c(F)c2)n1 |
| 11 nM | Cc1cc(C)c(C(O)c2nc(C(=O)O)cc3cc(O)c(O)cc23)c(C)c1 (configuration not stated) |
| 11 nM | O=C(O)c1cc2cc(O)c(O)cc2c(C(=O)c2ccc(Oc3cccc(Cl)c3)c(F)c2)n1 |
| 9.4 nM | Cc1ccc(Oc2ccc(C(=O)c3nc(C(=O)O)cc4cc(O)c(O)cc34)cc2F)cc1 |
| 9 nM | O=C(O)c1cc2cc(O)c(O)cc2c(C(=O)c2ccc(Oc3cc(Cl)cc(Cl)c3)c(F)c2)n1 |
